Test results published in US6887888B2, “Soluble compositions of triphenylethylene antiestrogens” (Orion Corporation, priority 1998, dated 2005).
Counter-ions that a name gives are not always drawn. Like-named read-outs stand apart in the source and are kept apart here.

Experiment: Solubility of toremifene citrate in solvent (reference)
Assay type: physicochemical

solubility (0.1 M HCl, simulated gastric fluid, read-out: Solubility in 0.1 M HCl): ~30 µg/mL
solubility (ethanol, organic solvent or mixture, read-out: Solubility in ethanol): ~3000 µg/mL
SMILES: CN(C)CCOc1ccc(/C(=C(/CCCl)c2ccccc2)c2ccccc2)cc1 [toremifene citrate]
